From ChEMBL document CHEMBL3885881, “DrugMatrix”

Species: Rattus norvegicus
Test: DrugMatrix - Regimen: Daily Repeat
Assay type: toxicity, organism-based, Sprague-Dawley
Set-up: regimen Daily Repeat, gender Male, age 6-8 weeks
Conditions: in vivo, po, route oral GAVAGE, vehicle .5 % CMC; for ABSOLUTE BASOPHIL / ABSOLUTE EOSINOPHIL / ABSOLUTE LYMPHOCYTE / ABSOLUTE MONOCYTE / ABSOLUTE SEGMENTED NEUTROPHIL / BASOPHIL / EOSINOPHIL / ERYTHROCYTE COUNT / HEMATOCRIT / HEMOGLOBIN / LEUKOCYTE COUNT / LYMPHOCYTE / MEAN CORPUSCULAR HEMOGLOBIN / MEAN CORPUSCULAR HEMOGLOBIN CONCENTRATION / MEAN CORPUSCULAR VOLUME / MONOCYTE / NEUTROPHIL / NUCLEATED RED BLOOD CELLS / PLATELET COUNT: tissue Blood; for ALANINE AMINOTRANSFERASE / ALBUMIN / ALKALINE PHOSPHATASE / ASPARTATE AMINOTRANSFERASE / BLOOD UREA NITROGEN / CARBON DIOXIDE / CHLORIDE / CHOLESTEROL / CREATINE PHOSPHOKINASE / CREATININE / GLUCOSE / LACTATE DEHYDROGENASE / LIPASE / POTASSIUM / SODIUM / TOTAL BILIRUBIN / TOTAL PROTEIN: tissue Plasma
[1] = 0 mg/kg, 72 h, dose level Control, time 3 day
[2] = 0 mg/kg, 120 h, dose level Control, time 5 day
[3] = 150 mg/kg, 72 h, dose level Low, time 3 day

## C[C@@H]1CC[C@H]2[C@@H](C)C(=O)O[C@@H]3O[C@@]4(C)CC[C@@H]1[C@]32OO4 [ARTEMISININ]
[1]
  ABSOLUTE BASOPHIL: 0 CELLS/uL
  ABSOLUTE EOSINOPHIL: 171.33 CELLS/uL
  ABSOLUTE LYMPHOCYTE: 13776.5 CELLS/uL
  ABSOLUTE MONOCYTE: 180.83 CELLS/uL
  ABSOLUTE SEGMENTED NEUTROPHIL: 1121.33 CELLS/uL
  BASOPHIL: 0%
  EOSINOPHIL: 1%
  ERYTHROCYTE COUNT: 5.56 x10E6/uL
  HEMATOCRIT: 34.75%
  HEMOGLOBIN: 13.68 G/DL
  LEUKOCYTE COUNT: 15.25 x10E3/uL
  LYMPHOCYTE: 90.17%
  MEAN CORPUSCULAR HEMOGLOBIN: 24.6 pg
  MEAN CORPUSCULAR HEMOGLOBIN CONCENTRATION: 39.4 G/DL
  MEAN CORPUSCULAR VOLUME: 62.48 fL
  MONOCYTE: 1.17%
  NEUTROPHIL: 7.67%
  NUCLEATED RED BLOOD CELLS: 0 /100WBC
  PLATELET COUNT: 1342 x10E3/uL
  ALANINE AMINOTRANSFERASE: 49.67 u/L
  ALBUMIN: 4.15 G/DL
  ALKALINE PHOSPHATASE: 346.83 u/L
  ASPARTATE AMINOTRANSFERASE: 108.17 u/L
  BLOOD UREA NITROGEN: 17.33 mg/dL
  CARBON DIOXIDE: 25 mmol/L
  CHLORIDE: 100.83 MEQ/L
  CHOLESTEROL: 66.83 mg/dL
  CREATINE PHOSPHOKINASE: 788 u/L
  CREATININE: 0.18 mg/dL
  GLUCOSE: 151.67 mg/dL
  LACTATE DEHYDROGENASE: 982.5 u/L
  LIPASE: 10.33 u/L
  POTASSIUM: 6.37 MEQ/L
  SODIUM: 141.02 MEQ/L
  TOTAL BILIRUBIN: 0.18 mg/dL
  TOTAL PROTEIN: 5.9 G/DL
[2]
  ABSOLUTE BASOPHIL: 0 CELLS/uL
  ABSOLUTE EOSINOPHIL: 69 CELLS/uL
  ABSOLUTE LYMPHOCYTE: 13632.83 CELLS/uL
  ABSOLUTE MONOCYTE: 139.83 CELLS/uL
  ABSOLUTE SEGMENTED NEUTROPHIL: 1225 CELLS/uL
  BASOPHIL: 0%
  EOSINOPHIL: 0.33%
  ERYTHROCYTE COUNT: 5.52 x10E6/uL
  HEMATOCRIT: 33.98%
  HEMOGLOBIN: 13.22 G/DL
  LEUKOCYTE COUNT: 15.07 x10E3/uL
  LYMPHOCYTE: 90.83%
  MEAN CORPUSCULAR HEMOGLOBIN: 23.95 pg
  MEAN CORPUSCULAR HEMOGLOBIN CONCENTRATION: 38.9 G/DL
  MEAN CORPUSCULAR VOLUME: 61.53 fL
  MONOCYTE: 0.83%
  NEUTROPHIL: 8%
  NUCLEATED RED BLOOD CELLS: 0 /100WBC
  PLATELET COUNT: 1196 x10E3/uL
  ALANINE AMINOTRANSFERASE: 49.17 u/L
  ALBUMIN: 4.2 G/DL
  ALKALINE PHOSPHATASE: 352.33 u/L
  ASPARTATE AMINOTRANSFERASE: 89.67 u/L
  BLOOD UREA NITROGEN: 18 mg/dL
  CARBON DIOXIDE: 27.67 mmol/L
  CHLORIDE: 101 MEQ/L
  CHOLESTEROL: 72.83 mg/dL
  CREATINE PHOSPHOKINASE: 417.5 u/L
  CREATININE: 0.18 mg/dL
  GLUCOSE: 150.5 mg/dL
  LACTATE DEHYDROGENASE: 517.33 u/L
  LIPASE: 9 u/L
  POTASSIUM: 6.57 MEQ/L
  SODIUM: 143.62 MEQ/L
  TOTAL BILIRUBIN: 0.2 mg/dL
  TOTAL PROTEIN: 6.08 G/DL
[3]
  ABSOLUTE BASOPHIL: 0 CELLS/uL
  ABSOLUTE EOSINOPHIL: 206 CELLS/uL
  ABSOLUTE LYMPHOCYTE: 10521.33 CELLS/uL
  ABSOLUTE MONOCYTE: 315 CELLS/uL
  ABSOLUTE SEGMENTED NEUTROPHIL: 957.67 CELLS/uL
  BASOPHIL: 0%
  EOSINOPHIL: 1.67%
  ERYTHROCYTE COUNT: 6.1 x10E6/uL
  HEMATOCRIT: 36.63%
  HEMOGLOBIN: 13.77 G/DL
  LEUKOCYTE COUNT: 12 x10E3/uL
  LYMPHOCYTE: 87.67%
  MEAN CORPUSCULAR HEMOGLOBIN: 22.63 pg
  MEAN CORPUSCULAR HEMOGLOBIN CONCENTRATION: 37.6 G/DL
  MEAN CORPUSCULAR VOLUME: 60.1 fL
  MONOCYTE: 2.67%
  NEUTROPHIL: 8%
  NUCLEATED RED BLOOD CELLS: 0 /100WBC
  PLATELET COUNT: 1362.67 x10E3/uL
  ALANINE AMINOTRANSFERASE: 38 u/L
  ALBUMIN: 4.53 G/DL
  ALKALINE PHOSPHATASE: 347.67 u/L
  ASPARTATE AMINOTRANSFERASE: 86.67 u/L
  BLOOD UREA NITROGEN: 22 mg/dL
  CARBON DIOXIDE: 25.33 mmol/L
  CHLORIDE: 104.33 MEQ/L
  CHOLESTEROL: 87.67 mg/dL
  CREATINE PHOSPHOKINASE: 336.33 u/L
  CREATININE: 0.24 mg/dL
  GLUCOSE: 145.67 mg/dL
  LACTATE DEHYDROGENASE: 459.33 u/L
  LIPASE: 11 u/L
  POTASSIUM: 6.03 MEQ/L
  SODIUM: 146.83 MEQ/L
  TOTAL BILIRUBIN: 0.13 mg/dL
